# Values joined by “and” are separate entries in the source; they are usually repeats but may differ in a detail not shown here. Equal values may be shown once. Marks after values point to notes of the source that are not given here.
# What was measured:
# HSV-2 = test: Genital HSV prevention test in the mouse model; assay type: in vivo
# Experimental: The efficacy of SPL-7013 was tested in a genital HSV prevention test in the mouse (strain MS) model. A dose of 15 μl of 100 mg/ml, or 10 mg/ml of the compound was instilled into the vagina of 16 animals 20 sec before HSV-2 infection. […] Total mortality in three days of the same number of control infected mice was used as an end-point of the tests.
# [1] = test system: viral strains of Herpes virus-2 resistant to modified nucleoside based antiviral agents; details: cell tests
# C. trachomatis = C. trachomatis genital tract infection in mice; assay type: in vivo, mouse; details: 15 μL of 100 mg/mL, −20 sec
# Source text: Lower genital tract infection is defined by isolation of the organism by culture from vaginal swab samples collected on days 3 or 6 post challenge. For upper genital tract infection the definition is isolation of the organism by culture from the upper genital tract tissue harvested on day 10 post challenge. Phosphate buffer PBS treated mice were used as controls.
# PBMCs = test: MTS cell viability in PBMC assay; assay type: cell-based, human
# Source text: Human peripheral blood mononuclear cells from a minimum of 2 donors, that have been blasted with PHA and IL-2, were counted, viability determined by Trypan Blue dye exclusion and mixed in equal ratios. Pooled donors were used to minimize the variability observed between individual donors which results from quantitative and qualitative differences in HIV infection and overall response to the PHA and IL-2 of primary lymphocyte populations. The cells were resuspended at 1×10^6 cells/mL in RPMI 1640 without phenol red supplemented with 15% Fetal Bovine Serum (heat inactivated), 2 mM L-glutamine, 100 U/mL penicillin, 100 μg/mL streptomycin, 10 μg/mL gentamycin and IL-2 (20 U/mL, R&D Systems, Minneapolis, Minn.). Fifty microliters of cells were then distributed to the inner 60 wells of a 96 well round bottom microtiter culture plate in a standard format developed by the Infectious Disease Research department of Southern Research Institute. Each plate contains cell control wells (cells only), virus control wells (cells plus virus), and experimental wells (drug plus cells plus virus). Serially diluted compounds are added to the microtiter plate followed by the appropriate pre-titered strain of HIV-1 or SHIV-1. All samples were assayed in triplicate with a replicate plate without virus for the determination of compound toxicity. The final volume per well was 200 µL. The assay was incubated for 6 days in a humidified atmosphere at 37° C., 5% CO2, after which supernatants were collected, for analysis of RT activity and sister plates analyzed for cell viability by MTS dye reduction. Wells were also examined microscopically and any abnormalities noted.
# At assay termination the assay plates were stained with the soluble tetrazolium-based dye MTS (CellTiter® Reagent Promega, Madison, Wis.) to determined cell viability and quantify compound toxicity. […] At termination of the PBMC assay 20 µL of MTS reagent was added per well, and the wells are incubated for 4 h at 37° C.
# AZT has been used as a relevant positive control compound for the individual assays.
# [2] = test system: human papillomavirus type 6b VLPs; test: Inhibition of uptake of HPV virus-like particles into A431 cells (flow cytometry); assay type: cell-based
# Experimental: The compound was evaluated for its ability to inhibit the binding and uptake of human papillomavirus virus-like particles to a human epithelial cell line.
# The compound was tested at a range of six dilutions as inhibitor of binding and of uptake of Papillomavirus fluorochrome-tagged Virus-Like-Particles (VLPs) of human papillomavirus type 6b. […] Assay of binding and uptake was determined using flow cytometry and inhibition of binding was reported as a percentage with respect to the binding observed in the absence of inhibitor. The tests were performed in two independent assays
# Cells. The human epidermoid carcinoma cell line A431 was purchased from the American Type Culture Collection at passage 30 (CRL-1555, Batch F-13530) and maintained in DMEM in 10% FCS.
# Human papillomavirus type 6b VLPs were grown and purified according to standard operating procedures. Particles were labelled with a fluorochrome.
# The compound was re-dissolved in sterile water to the concentrations of 5 mM and used fresh for the first assay before being frozen at −20° C. It was then thawed for the second assay.
# A T75 flask of A431 cells was washed with 10 ml of PBS/EDTA (0.05%) for 5 minutes at 37° C. before being treated with 2 ml trypsin for a further 5 minutes at 37° C. […]
# Results were analysed using WinLisT. […]
# [3] = 100 mg/ml intravaginal, 20 sec. prior to infection
substance,measurement,setting,value
"BHAlyslys2lys4lys8lys16[NH—CO—CH2)O-3,6-Naphthyl-(SO3Na)2]32 [SPL-7013]",Animals Protected Against Infection (%),"HSV-2; 10 mg/ml intravaginal, 20 sec. prior to infection",10/12 (83%)
same,Animals Protected Against Disease (%),HSV-2; [3],11/11 (100%) and 12/12 (100%)
same,Animals Protected Against Infection (%),HSV-2; [3],11/11 (100% and 12/12 (100%
same,Prevention of HSV-2 infection and disease (in words),HSV-2; 15 μl of 100 mg/ml or 10 mg/ml intravaginal 20 sec before HSV-2 infection,prevented infection and disease in all animals tested
same,Activity against resistant Herpes virus-2 strains (in words),[1],shown activity
same,"Animals Protected Against Infection, Lower Tract (%)","C. trachomatis; Group 1, mouse",(50%)^a
same,"Animals Protected Against Infection, Lower Tract (number)","C. trachomatis; Group 1, mouse",8
same,"Animals Protected Against Infection, Upper Tract (%)","C. trachomatis; Group 1, mouse",(50%)
same,"Animals Protected Against Infection, Upper Tract (number)","C. trachomatis; Group 1, mouse",8
same,"Animals Protected Against Infection, Lower Tract (%)","C. trachomatis; Group 2, mouse",(38%)
same,"Animals Protected Against Infection, Lower Tract (number)","C. trachomatis; Group 2, mouse",6
same,"Animals Protected Against Infection, Upper Tract (%)","C. trachomatis; Group 2, mouse",(50%)^a
same,"Animals Protected Against Infection, Upper Tract (number)","C. trachomatis; Group 2, mouse",8
same,HIV-1 RoJo Infected PBMCs TC50,PBMCs; plate of the HIV-1 RoJo test,>100 µg/mL
same,SHIV 89.6pd Infected PBMCs TC50,PBMCs; plate of the SHIV 89.6pd test,>100 µg/mL
same,Uptake of VLPs at maximal inhibition (% of VLPs alone),"[2]; 1 μM, HPV 6b VLPs",26%
same,Uptake inhibition (in words),[2]; at 1 μM and 10 nM,shown uptake inhibition
